Assay results taken from paper PMC12264554, “Application of preclinical absorption, distribution, metabolism, elimination in vitro techniques for the characterization and compound library optimization of novel antibiotic gallium salophen” (Drug Metabolism and Disposition, 2025).

Columns and labels:
[1] = Microsomal clearance assay; type: in vitro ADME, rat
Procedure: Library compounds were tested in triplicate at a concentration of 2 μM and incubated in 0.1 M potassium phosphate buffer containing 12 mM MgCl2 and 8 mM NADPH at pH 7.4 with either 0.5 mg/mL of Sprague–Dawley liver microsomes (Invitrogen). Samples were incubated for 0, 3, 7, 12, 20, and 30 minutes. At the designated time point, the incubation reaction was stopped by adding 100 μL of ACN containing 1 μM of either GaSal-4 or GaSal-5 as the internal standards. […] 7-Ethoxycoumarin (Sigma) was used as a positive control in this experiment. Intrinsic clearance (CLint) was calculated using eq. 2:(2) CLint=0.693/InVitroT1/2∗IncubationVolume/mgofmicrosomes∗45mgmicrosomes/gramofliver∗45gramsliver/kgofbodyweight
The average CLint ± SEM was determined for each compound for 2 replicates per time point.

S9 clearance assay = type: in vitro ADME; conditions: average ± SEM n = 3; for CLint scaled: S9 rat liver fraction, 2 μM, read-out: Predicted CLint (converted); for half-life at 2 µM: pH 7.4, S9 rat liver fraction
Procedure: Select library compounds were tested in triplicate at a concentration of 2 μM and incubated in 0.1 M potassium phosphate buffer containing 12 mM MgCl2 and 8 mM NADPH at pH 7.4 with 2.5 mg/mL of Sprague–Dawley S9 (Invitrogen). Incubations contained a final concentration of 2.5 mM UDP glucuronic acid, 0.10 mM adenosine 3’-phosphate 5’-phosphosulfate, 0.5 mM acetyl CoA, and 50 μg/mg protein alamethicin. All co-factors were from Sigma. Samples were incubated for 0, 3, 7, 12, 20, and 30 minutes. At the designated time point, the incubation reaction was stopped by adding 100 μL of ACN containing 1 μM of either GaSal-4 or GaSal-5 as the internal standard. […] A hundred microliter of supernatant was taken for LC-MS/MS analysis. 7-Ethoxycoumarin (Sigma) was used as a positive control in this experiment. Clearance was calculated according to eq. 3:(3) CLint=0.693/InVitroT1/2∗IncubationVolume/mgofS9∗165mgS9/gramofliver∗45gramsliver/kgofbodyweight
The average CLint ± SEM was determined for each compound for 3 replicates per time point.

[2] = RBC/PL partitioning equilibrium in whole blood; conditions: for ICP-MS calculated KRBC/PL / LC-MS/MS calculated KRBC/PL: sodium heparin whole blood, 6 selectivity lots; for KRBC/PL: K2EDTA whole blood
Procedure: The mixtures were digested at 80 °C for 4 hours and further diluted to a concentration of 6% nitric acid. Gallium (Ga^71) in whole blood, PL, and RBC samples were quantified using an Agilent 7700x ICP-MS instrument (Agilent Technologies). Metal levels were detected using an Octopole Reaction System in He mode. Other ICP-MS parameters include an radio frequency power of 1500 W, on octupole radio frequency of 190 V, an octapole bias of –18 V, a helium gas flow of 4.3 mL/min, and an argon flow of 0.99 L/min. Samples were loaded through a 7700X peristaltic (with a speed of 0.1 rps) and a MicroMist nebulizer. A standard calibration curve was used to derive metal concentrations. The calibration standards from 0–250 ppb were prepared in 6% nitric acid using atomic absorption standards (Sigma). Data analysis and extraction were performed using Agilent’s MassHunter software version 5.1, specifically version D.01.01.
All LC-MS/MS grade solvents were purchased from ThermoFisher. Ammonium bicarbonate was purchased from Sigma Aldrich. Analysis was performed on a Waters I-Class ultra-performance liquid chromatography system connected with a Waters Xevo TQ-XS mass spectrometer. Ten millimolar ammonium bicarbonate, pH 9.4 was used for mobile phase A, and 100% methanol was used for mobile phase B. The column flow rate was set at 0.400 mL/min. Chromatographic separation was performed with a BEH C18 (2.1 × 50 mm, 1.7 μm) column (Waters). […] The total run time was 4 minutes. The column temperature was set to 60 °C, and the autosampler temperature was set to 15 °C. Washing parameters were 800 μL of weak needle wash (acetonitrile [ACN]:Water/50:50) and 1000 μL of strong needle wash (methanol:ACN:2-propanol:formic acid/30:30:40:0.5) after every injection. Transitions used to monitor all drugs in the study are shown in Supplemental Table 1.
Whole blood (either potassium EDTA [K2EDTA] or sodium heparin) was preincubated at 37 °C for 30 minutes before spiking with the analyte. GaSal-5 was made at a stock concentration of 100 μg/mL in water and then spiked at a high concentration (1 μg/mL) and low concentration (100 ng/mL) to determine whether equilibrium was concentration dependent. Samples were then aliquoted and stored in a water bath at 37 °C for 1, 2, 3, 4, and 8 hours or harvested immediately. PL was harvested from samples by centrifuging at 3000 rpm at 4 °C for 10 minutes. PL was transferred to a new tube and considered the PL fraction, whereas the rest of the matrix was considered the RBC fraction. Samples were then either analyzed by LC-MS/MS or ICP-MS. […] For selectivity lot analysis, whole blood from 3 male and 3 female donors were incubated for 2 hours and then analyzed with LC-MS/MS and ICP-MS at a single concentration of 1 μg/mL. Data are presented as average ± SEM, n = 3 per sample, per concentration. Significance was determined by using a paired t test for ICP-MS and LC-MS/MS data (the same sample, different method) or a 2-tailed Student’s t test for different anticoagulants.

CYP = assay: 7-Ethoxycoumarin metabolism in microsomes in the presence of GaSal analogs (possible CYP inhibition); type: in vitro ADME, rat; conditions: co-incubation with 7-ethoxycoumarin
[3] = 0.1 μg/mL, pooled K2EDTA whole blood, 2 hours, LC-MS/MS (ICP-MS for Ga^3+)
[4] = 0.1 μg/mL, pooled sodium heparin whole blood, 2 hours, LC-MS/MS (ICP-MS for Ga^3+)
[5] = 1 μg/mL, pooled K2EDTA whole blood, 2 hours, LC-MS/MS (ICP-MS for Ga^3+)
[6] = 1 μg/mL, pooled sodium heparin whole blood, 2 hours, LC-MS/MS (ICP-MS for Ga^3+)
[7] = 1 μg/mL, selectivity lots n = 6, LC-MS/MS
[8] = 1 μg/mL, selectivity lots n = 6, LC-MS/MS (also in Table 4)

SMILES	CLint scaled ([1]; 2 μM, 0.5 mg/mL rat liver microsomes, NADPH, 30 min, read-out: experimental CLint (microsomes)) [mL/min/kg]	CLint scaled (S9 clearance assay) [mL/min/kg]	half-life at 2 µM (S9 clearance assay) [h]	K2EDTA KRBC/PL [2, 3]	Heparin KRBC/PL [2, 4]	K2EDTA KRBC/PL [2, 5]	Heparin KRBC/PL [2, 6]	K2EDTA KRBC/PL [2, 7]	Heparin KRBC/PL [2, 8]	ICP-MS calculated KRBC/PL ([2]; 1 μg/mL, 2 hours)	LC-MS/MS calculated KRBC/PL ([2]; 1 μg/mL, 2 hours)	7-ethoxycoumarin metabolism when co-incubated (possible CYP inhibition) (CYP)	decrease in peak area over time ([1]; rat liver microsomes, 30-minute period) [%]	KRBC/PL ([2]; 2 hours, ICP-MS, HQC (1 μg/mL))	KRBC/PL ([2]; 2 hours, ICP-MS, LQC (100 ng/mL))	KRBC/PL ([2]; 2 hours, LC-MS/MS, HQC (1 μg/mL))	KRBC/PL ([2]; 2 hours, LC-MS/MS, LQC (100 ng/mL))
Oc1ccccc1/C=N/c1ccccc1/N=C/c1ccccc1O.[Ga+3] [GaSal, gallium salophen]	21.3 to 63	136	0.59 ± 0.15	0.22 ± 0.02	0.61 ± 0.42	0.26 ± 0.03	0.57 ± 0.19	0.58 ± 0.02	0.45 ± 0.03	0.89 ± 0.04	0.45 ± 0.03	CYP inhibition	–	–	–	–	–
Oc1cc(OCCN2CCOCC2)ccc1C=Nc1ccccc1N=Cc1ccc(OCCN2CCOCC2)cc1O.[Ga+3] [GaSal-3]	–	30.2	2.67 ± 1.21	0.28 ± 0.08	1.08 ± 0.28	0.28 ± 0.04	1.03 ± 0.24	–	–	–	–	–	< 10	–	–	–	–
O=C(O)CCOc1ccc(C=Nc2ccccc2N=Cc2ccc(OCCC(=O)O)cc2O)c(O)c1.[Ga+3] [GaSal-4]	–	398	0.2 ± 0.1	2288 ± 94	3422 ± 435	9220 ± 484	8098 ± 1102	–	–	–	–	–	–	–	–	–	–
COCCOCCOc1ccc(C=Nc2ccccc2N=Cc2ccc(OCCOCCOC)cc2O)c(O)c1.[Ga+3] [GaSal-5]	–	27.8	2.88 ± 3.37	0.63 ± 0.36	1.91 ± 0.57	–	1.34 ± 0.17	0.16 ± 0.03	0.56 ± 0.03	0.36 ± 0.03	0.56 ± 0.03	–	–	0.572 ± 0.008	0.632 ± 0.080	0.043 ± 0.017	0.070 ± 0.007
COCCOc1ccc(/C=N/c2ccccc2/N=C/c2ccc(OCCOC)cc2O)c(O)c1.[Ga+3] [GaSal-13]	–	–	–	0.55 ± 0.35	0.47 ± 0.22	0.08 ± 0.04	0.59 ± 0.18	–	–	0.48 ± 0.04	0.42 ± 0.03	–	–	–	–	–	–
COCCOc1ccc(/C=N/c2ccccc2N=C(C)c2ccccc2O)c(O)c1.[Ga+3] [GaSal-14]	–	–	–	0.69 ± 0.10	0.55 ± 0.07	1.65 ± 0.18	1.86 ± 0.36	0.08 ± 0.01	0.33 ± 0.04	0.34 ± 0.02	0.33 ± 0.04	–	–	–	–	–	–
